{
  "source": "patent US20220023269A1",
  "about": "“Methods Of Treating Diabetes In Severe Insulin-Resistant Diabetic Subjects” (Balticgruppen Bio AB, priority 2018, published 2022)",
  "key": {"DIO mice": {"test_system": "DIO mice", "test": "Prevention of dysglycemia and insulin resistance in DIO B6 mice (oral gavage, 8 w)", "type": "in vivo", "details": "100 mg/kg/day each", "procedure": "MATSUDA index was calculated via: […] […] All cell lines were lysed in 0.1 M Tris-HCl, pH 6.8, 2% SDS, 10 mM sodium fluoride (SIGMA #S7920), 10 mM β-glycerophosphate (SIGMA #G6376), and 1 mM sodium vanadate (SIGMA #72060) and supernatant collected after 1 minute at 14,000 rpm. Islets (human and mouse) were lysed in 0.1 M Tris-HCl, pH 6.8, 2% SDS, protease inhibitor (Roche #04 693 124 001) and phosphatase inhibitor (Roche #04 906 837 001). […] The supernatant was collected after 2 min at 14,000 rpm. This procedure was repeated until all fat was eliminated and the supernatant was clear, at 4° C. Samples were analysed on 4-15% polyacrylamide gels. Values were normalised toward AMPKα, β-Actin, GAPDH or the respective non-phosphorylated counterpart. For RNA purification calf muscle, iWAT, interscapular BAT, and left lateral liver lobe was crushed in a pestle using liquid nitrogen before turning to respective RNA kit. RNA from liver was prepared using Total RNA isolation Nucleospin II Kit (Macherey-Nagel #740955.50). RNA from adipose tissue was prepared using RNeasy Lipid Tissue Mini kit (Qiagen #74804). RNA from calf muscle tissue was prepared using RNeasy Fibrous Tissue Mini kit (Qiagen #74704). First strand cDNA synthesis was done using SuperScript III (First-Strand Synthesis SuperMix for qRT-PCR, Invitrogen #11752-250) according to the manufacturer's instructions. Total RNA was prepared from isolated islets using RNeasy Micro Kit (Qiagen #74004) and first strand cDNA synthesis was done using Superscript III (Invitrogen #18080-051) according to the manufacturer's instructions. Quantification of mRNA expression levels was performed essentially as previously described (Reference 3)."}, "rat skeletal L6 myotubes": {"test_system": "rat skeletal L6 myotubes", "test": "Glucose uptake in L6 myotubes", "type": "cell-based", "details": "2.5, 5, 10 μM; absence of insulin; siAMPKα1/α2", "procedure": "Rat L6 skeletal muscle cells grown in high-glucose (4.5 g/L) Dulbecco's Modified Eagle Medium (Gibco #31966), 10% fetal bovine serum (Gibco #10500-064) and 25 μg/ml gentamicin (Gibco 1 #5750) were induced to differentiate, by reducing the serum concentration to 2% for 14 days by which time the majority of myoblast had differentiated to myotubes. Myotubes were rinsed in serum-free low-glucose (1 g/L) DMEM (Gibco a #21885), treated with vehicle control, 2.5, 5 and 10 μM test material (serum-free low-glucose DMEM, 0.1% DMSO) for 2 hours, rinsed in serum-free DMEM w/o glucose (Gibco #11966) and thereafter incubated with the same for 20 minutes before addition of 1 μCi 2-Deoxy-D-glucose (2-DG) (Perkin Elmer #NET549A250UC) for 10 minutes. The cells were rinsed 3 times in serum-free DMEM w/o glucose and lysed in 1 ml RIPA buffer (150 mM Sodiumchloride, 1% NP40, 0.5% Sodiumdeoxycholate, 0.1% SDS, 50 mM Tris pH8.0). 300 μl were added to 4 ml liquid scintillation cocktail (Perkin Elmer #1200-437) before counted, 1 minute, in a Wallac 1414 beta counter. CPM was converted to arbitrary units by setting vehicle control as 1. […]"}},
  "data": [
    {"smiles": "O=C(Nc1nc(=O)n(Cc2ccc(Cl)cc2)s1)c1ccc(Cl)cc1", "note": "[test material, 4-chloro-N-[2-[(4-chlorophenyl)methyl]-3-oxo-1,2,4-thiadiazol-5-yl]benzamide]", "values": [
      {"measurement": "HFD-provoked increase in fasted glucose", "setting": "DIO mice; oral gavage, 6 w", "result": "averted the HFD-provoked increase"},
      {"measurement": "HFD-provoked increase in fasted plasma insulin", "setting": "DIO mice; oral gavage, 6 w", "result": "averted the HFD-provoked increase"},
      {"measurement": "insulin resistance (HOMA-IR)", "setting": "DIO mice; oral gavage, vs vehicle", "result": "did not develop insulin resistance"},
      {"measurement": "Glut1 mRNA levels in calf muscle", "setting": "DIO mice; 8 w", "result": "increased Glut1 mRNA levels"},
      {"measurement": "Txnip mRNA levels in calf muscle", "setting": "DIO mice; 8 w", "result": "reduced Txnip mRNA levels"},
      {"measurement": "pAMPK in calf muscle", "setting": "DIO mice; 8 w", "result": "significantly increased pAMPK"},
      {"measurement": "2-Deoxy-D-glucose (2-DG) uptake", "setting": "rat skeletal L6 myotubes", "result": "increased 2-Deoxy-D-glucose (2-DG) uptake in a dose- and AMPK-dependent manner"}
    ]}
  ]
}
